Assay results published in the NIST ThermoML archive (doi:10.1021/je700350b).
Numbers after ± are expanded uncertainties.

Assay: xn = mol fraction of the nth substance listed
Conditions: for viscosity: 101.33 kPa; for viscosity / binary diffusion coefficient: Liquid; for surface tension liquid-gas: Ring tensiometer; for binary diffusion coefficient: 101 kPa, Taylor dispersion method

CCN(CC)CCO [(diethylamino)ethanol] + O
Conditions | binary diffusion coefficient [m2/s] | surface tension liquid-gas [mN/m] | viscosity [mPa·s]
298.15 K, x1 = 0.1483 | – | – | 8.96 ± 0.14
298.15 K, x1 = 0.1603 | – | – | 9.677 ± 0.16
298.15 K, x1 = 0.1704 | – | – | 10.26 ± 0.17
298.15 K, x1 = 0.1905 | – | – | 11.31 ± 0.19
298.15 K, x1 = 0.2004 | – | – | 11.76 ± 0.2
298.15 K, x1 = 0.2104 | – | – | 12.22 ± 0.2
298.15 K, x1 = 0.22 | – | – | 12.66 ± 0.21
298.15 K, x1 = 0.2301 | – | – | 13.04 ± 0.22
298.15 K, x1 = 0.2401 | – | – | 13.42 ± 0.23
298.15 K, x1 = 0.253 | – | – | 13.84 ± 0.23
298.15 K, x1 = 0.2674 | – | – | 14.24 ± 0.24
298.15 K, x1 = 0.2701 | – | – | 14.25 ± 0.24
298.15 K, x1 = 0.2801 | – | – | 14.55 ± 0.25
298.15 K, x1 = 0.29 | – | – | 14.76 ± 0.25
298.15 K, x1 = 0.3022 | – | – | 14.98 ± 0.26
298.15 K, x1 = 0.35 | – | – | 15.43 ± 0.27
298.15 K, x1 = 0.3999 | – | – | 14.98 ± 0.26
298.15 K, x1 = 0.4507 | – | – | 14.58 ± 0.25
298.15 K, x1 = 0.5001 | – | – | 13.45 ± 0.23
298.15 K, x1 = 0.5504 | – | – | 12.29 ± 0.2
298.15 K, x1 = 0.6001 | – | – | 10.96 ± 0.18
298.15 K, x1 = 0.6514 | – | – | 9.672 ± 0.16
298.15 K, x1 = 0.7 | – | – | 8.576 ± 0.14
298.15 K, x1 = 0.7508 | – | – | 7.471 ± 0.12
298.15 K, x1 = 0.8001 | – | – | 6.597 ± 0.1
298.15 K, x1 = 0.8508 | – | – | 5.743 ± 0.09
298.15 K, x1 = 0.9001 | – | – | 5.063 ± 0.079
298.15 K, x1 = 0.9501 | – | – | 4.494 ± 0.07
298.15 K, x1 = 1 | – | – | 4.01 ± 0.062
303.15 K, x1 = 0.00104 | – | 60.06 ± 0.92 | –
303.15 K, x1 = 0.00111 | – | 59.95 ± 0.92 | –
303.15 K, x1 = 0.0013 | – | 59.24 ± 0.92 | –
303.15 K, x1 = 0.00278 | 7.11e-10 | – | –
303.15 K, x1 = 0.00336 | – | 51.86 ± 0.87 | –
303.15 K, x1 = 0.00503 | – | 50.47 ± 0.72 | –
303.15 K, x1 = 0.00524 | 6.5e-10 | – | –
303.15 K, x1 = 0.00679 | – | 46.5 ± 0.67 | –
303.15 K, x1 = 0.00781 | 6.39e-10 | – | –
303.15 K, x1 = 0.01005 | – | – | 1.062 ± 0.016
303.15 K, x1 = 0.01032 | 5.82e-10 | – | –
303.15 K, x1 = 0.01281 | 5.63e-10 | – | –
303.15 K, x1 = 0.01536 | 5.39e-10 | – | –
303.15 K, x1 = 0.01779 | 4.82e-10 | – | –
303.15 K, x1 = 0.02016 | – | – | 1.333 ± 0.02
303.15 K, x1 = 0.02026 | 4.54e-10 | – | –
303.15 K, x1 = 0.02372 | – | 39.92 ± 0.58 | –
303.15 K, x1 = 0.02731 | 4.06e-10 | – | –
303.15 K, x1 = 0.0382 | 3.14e-10 | – | –
303.15 K, x1 = 0.03976 | – | – | 2.025 ± 0.031
303.15 K, x1 = 0.03998 | – | 35.96 ± 0.53 | –
303.15 K, x1 = 0.05015 | – | – | 2.464 ± 0.038
303.15 K, x1 = 0.05024 | 2.55e-10 | – | –
303.15 K, x1 = 0.06011 | – | 34.47 ± 0.51 | –
303.15 K, x1 = 0.06028 | – | – | 2.899 ± 0.044
303.15 K, x1 = 0.07004 | – | – | 3.354 ± 0.051
303.15 K, x1 = 0.07276 | – | 33.87 ± 0.51 | –
303.15 K, x1 = 0.07362 | 1.77e-10 | – | –
303.15 K, x1 = 0.08051 | – | – | 3.86 ± 0.06
303.15 K, x1 = 0.08982 | – | – | 4.289 ± 0.066
303.15 K, x1 = 0.09846 | 1.53e-10 | – | –
303.15 K, x1 = 0.11 | – | – | 5.269 ± 0.082
303.15 K, x1 = 0.12 | – | – | 5.728 ± 0.089
303.15 K, x1 = 0.1247 | 1.37e-10 | – | –
303.15 K, x1 = 0.1253 | – | 32.48 ± 0.49 | –
303.15 K, x1 = 0.1301 | – | – | 6.216 ± 0.097
303.15 K, x1 = 0.1401 | – | – | 6.673 ± 0.1
303.15 K, x1 = 0.1476 | 1.29e-10 | – | –
303.15 K, x1 = 0.1511 | – | – | 7.151 ± 0.11
303.15 K, x1 = 0.1603 | – | – | 7.537 ± 0.12
303.15 K, x1 = 0.1704 | – | – | 7.965 ± 0.12
303.15 K, x1 = 0.1749 | – | 30.78 ± 0.46 | –
303.15 K, x1 = 0.1801 | 1.32e-10 | – | –
303.15 K, x1 = 0.1897 | – | – | 8.687 ± 0.14
303.15 K, x1 = 0.1998 | – | – | 9.003 ± 0.14
303.15 K, x1 = 0.2104 | – | – | 9.393 ± 0.15
303.15 K, x1 = 0.22 | – | – | 9.709 ± 0.15
303.15 K, x1 = 0.2301 | – | – | 9.979 ± 0.16
303.15 K, x1 = 0.2401 | – | – | 10.26 ± 0.17
303.15 K, x1 = 0.2498 | – | – | 10.48 ± 0.17
303.15 K, x1 = 0.2503 | – | 30.81 ± 0.47 | –
303.15 K, x1 = 0.2674 | – | – | 10.84 ± 0.18
303.15 K, x1 = 0.2701 | – | – | 10.86 ± 0.18
303.15 K, x1 = 0.2801 | – | – | 11.05 ± 0.18
303.15 K, x1 = 0.29 | – | – | 11.21 ± 0.18
303.15 K, x1 = 0.3003 | – | – | 11.25 ± 0.18
303.15 K, x1 = 0.35 | – | – | 11.5 ± 0.19
303.15 K, x1 = 0.3515 | – | 29.72 ± 0.45 | –
303.15 K, x1 = 0.3997 | – | – | 11.47 ± 0.19
303.15 K, x1 = 0.4018 | – | 29.34 ± 0.44 | –
303.15 K, x1 = 0.433 | – | – | 11.12 ± 0.18
303.15 K, x1 = 0.4995 | – | – | 10.24 ± 0.17
303.15 K, x1 = 0.5038 | – | 29.22 ± 0.45 | –
303.15 K, x1 = 0.5498 | – | – | 9.382 ± 0.15
303.15 K, x1 = 0.5997 | – | – | 8.485 ± 0.13
303.15 K, x1 = 0.608 | – | 28.83 ± 0.44 | –
303.15 K, x1 = 0.6499 | – | – | 7.581 ± 0.12
303.15 K, x1 = 0.7001 | – | – | 6.746 ± 0.11
303.15 K, x1 = 0.712 | – | 28.65 ± 0.44 | –
303.15 K, x1 = 0.7498 | – | – | 5.97 ± 0.093
303.15 K, x1 = 0.7503 | – | 28.3 ± 0.43 | –
303.15 K, x1 = 0.8 | – | – | 5.299 ± 0.083
303.15 K, x1 = 0.8499 | – | – | 4.701 ± 0.073
303.15 K, x1 = 0.8542 | – | 27.91 ± 0.43 | –
303.15 K, x1 = 0.9 | – | – | 4.196 ± 0.065
303.15 K, x1 = 0.95 | – | – | 3.742 ± 0.058
303.15 K, x1 = 1 | – | 27.2 ± 0.42 | 3.375 ± 0.052
